# Data as given in patent US7883715B2, “Pesticide compositions containing dicarboxylic acids” (Monsanto Technology LLC, priority 2002, dated 2011).
# Read-outs that look alike come from different tables or passages of the source.
# Legend:
# ABUTH = test: Greenhouse herbicidal effectiveness, ABUTH; type: in vivo, velvetleaf; settings: for inhibition at 2 g/ha / inhibition at 3 g/ha / inhibition at 4 g/ha / inhibition at 5 g/ha: Abutilon theophrasti; for efficacy ABUTH: Table 19A, 16 days after treatment
# Description: (§1) The following greenhouse testing procedure was used for evaluating compositions of the Examples to determine herbicidal effectiveness, except where otherwise indicated.
# (§2) Seeds of the plant species indicated were planted in 88 mm square pots in a soil mix which was previously sterilized and prefertilized with a 14-14-14 NPK slow release fertilizer at a rate of 3.6 kg/m3. The pots were placed in a greenhouse with sub-irrigation. About one week after emergence, seedlings were thinned as needed, including removal of any unhealthy or abnormal plants, to create a uniform series of test pots.
# (§3) The plants were maintained for the duration of the test in the greenhouse where they received a minimum of 14 hours of light per day. […] Exposure temperatures were not precisely controlled but averaged about 29° C. during the day and about 21° C. during the night. Plants were sub-irrigated throughout the test to ensure adequate soil moisture levels.
# (§4) Pots were assigned to different treatments in a fully randomized experimental design with 6 replications. A set of pots was left untreated as a reference against which affects of the treatments could later be evaluated.
# (§5) Application of glyphosate compositions was made by spraying with a track sprayer fitted with a 9501E nozzle calibrated to deliver a spray volume of 93 liters per hectare (l/ha) at a pressure of 165 kilopascals (kPa). After treatment, pots were returned to the greenhouse until ready for evaluation.
# (§6) Treatments were made using dilute aqueous compositions. These could be prepared as spray compositions directly from their ingredients, or by dilution with water of preformulated concentrate compositions.
# (§7) For evaluation of herbicidal effectiveness, all plants in the test were examined by a single practiced technician, who recorded percent control, a visual measurement of the effectiveness of each treatment by comparison with untreated plants. […] The reported % control values represent the average for all replicates of each treatment.
# EPSPS enzyme = target: T1, EPSPS enzyme (Escherichia coli, UniProt P0A6D3); test: Enzyme studies of EPSPS inhibition; type: biochemical; settings: oxalic acid without glyphosate
# T1 sequence (P0A6D3 1-427): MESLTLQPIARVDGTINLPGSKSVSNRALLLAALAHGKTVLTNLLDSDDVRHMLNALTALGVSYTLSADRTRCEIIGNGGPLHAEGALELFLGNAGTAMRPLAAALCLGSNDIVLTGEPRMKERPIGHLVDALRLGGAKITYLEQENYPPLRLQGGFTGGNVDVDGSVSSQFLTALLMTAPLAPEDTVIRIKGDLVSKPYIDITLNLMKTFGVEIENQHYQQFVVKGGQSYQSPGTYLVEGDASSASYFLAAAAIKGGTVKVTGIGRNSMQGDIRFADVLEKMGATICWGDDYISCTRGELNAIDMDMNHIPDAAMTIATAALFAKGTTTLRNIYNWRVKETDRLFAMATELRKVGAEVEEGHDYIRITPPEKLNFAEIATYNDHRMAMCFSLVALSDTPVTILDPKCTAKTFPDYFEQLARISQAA
# Description: It has been discovered that oxalic acid and derivatives thereof enhance the pesticidal activity of a pesticide by acting as either an allosteric or cooperative effecter of the inhibition of the target enzyme 5-enolpyruvylishikimate-3-phosphate synthase (hereinafter referred to as EPSP synthase or EPSPS). For example, oxalic acid increases the inhibition of EPSPS enzyme by glyphosate to enhance the physiological response of plants at the enzyme level. […] In other words, the oxalic acid is absorbed and systemically transported throughout the plant.
# Glyphosate inhibits the shikimic acid pathway which leads to the biosynthesis of aromatic compounds including amino acids, plant hormones and vitamins. Specifically, glyphosate curbs the conversion of phosphoenolpyruvic acid (PEP) and 3-phosphoshikimic acid to 5-enolpyruvyl-3-phosphoshikimic acid by inhibiting the EPSPS enzyme. It is believed that oxalic acid and other dicarboxylic acids enhance the binding efficiency of glyphosate to the S3P-EPSPS complex, resulting in a whole plant response to the oxalate at a given glyphosate concentration. […] This would lower the Kd of the S3P-EPSPS-glyphosate ternary complex. Data reported in the literature from x-ray crystallography have clearly identified the 427 amino acid side chains. […]
# plants = test: Whole plant response to oxalic acid by itself; type: in vivo; settings: enzyme studies and whole plant response
# Description: Glyphosate inhibits the shikimic acid pathway which leads to the biosynthesis of aromatic compounds including amino acids, plant hormones and vitamins. Specifically, glyphosate curbs the conversion of phosphoenolpyruvic acid (PEP) and 3-phosphoshikimic acid to 5-enolpyruvyl-3-phosphoshikimic acid by inhibiting the EPSPS enzyme. It is believed that oxalic acid and other dicarboxylic acids enhance the binding efficiency of glyphosate to the S3P-EPSPS complex, resulting in a whole plant response to the oxalate at a given glyphosate concentration. […] This would lower the Kd of the S3P-EPSPS-glyphosate ternary complex. Data reported in the literature from x-ray crystallography have clearly identified the 427 amino acid side chains. Each of the six α-helices in the top domain and four of the six α-helices in the lower domain are capped with basic amino acid residues. Electrostatic interaction of a dicarboxylic acid or other compound of the proper stearic requirement with these basic amino acid residues on the surface of the two domains of the enzyme are believed to produce a stapling action. Such stapling action is possible only on at least a partially closed conformation of the ternary complex of S3P-EPSPS-glyphosate. […] Any compound with stapling action to close the ternary complex tighter, thereby enhancing the inhibition of the enzyme is a suitable enhancer component of the invention.
# ECHCF = test: Greenhouse herbicidal effectiveness, ECHCF; type: in vivo, Japanese millet, barnyardgrass; settings: Table 19A, 16 days after treatment
# Description: as §1, §2, §3, §4, §5, §6, §7
# TRZVX = test: Greenhouse herbicidal effectiveness, TRZVX; type: in vivo, wheat; settings: Table 19A, 16 days after treatment
# Description: as §1, §2, §3, §4, §5, §6, §7
# [1] = 1 g a.e./ha, tank mix OTH1 1 % v/v
# [2] = 3 g a.e./ha, tank mix OTH1 1 % v/v
# [3] = 5 g a.e./ha, tank mix OTH1 1 % v/v
# [4] = 10 g a.e./ha, tank mix OTH1 1 % v/v
# [5] = 30 g a.e./ha, tank mix OTH1 1 % v/v
# [6] = 70 g a.e./ha, tank mix OTH1 1 % v/v
# [7] = 100 g a.e./ha, tank mix OTH1 1 % v/v
# [8] = 200 g a.e./ha, tank mix OTH1 1 % v/v
compound,measurement,setting,value
"O=C(O)C(=O)O [oxalic acid, Oxalic Acid]",inhibition at 2 g/ha,"ABUTH; 336 h, read-out: % inhibition ABUTH (14 DAT), oxalate/oxalic acid alone, 2 g a.e./ha, 14 DAT, Table 44A",0%
same,inhibition at 3 g/ha,"ABUTH; 336 h, read-out: % inhibition ABUTH (14 DAT), oxalate/oxalic acid alone, 3 g a.e./ha, 14 DAT, Table 44A",0%
same,inhibition at 4 g/ha,"ABUTH; 336 h, read-out: % inhibition ABUTH (14 DAT), oxalate/oxalic acid alone, 4 g a.e./ha, 14 DAT, Table 44A",0%
same,inhibition at 5 g/ha,"ABUTH; 336 h, read-out: % inhibition ABUTH (14 DAT), oxalate/oxalic acid alone, 5 g a.e./ha, 14 DAT, Table 44A",0%
same,inhibition at 2 g/ha,"ABUTH; 480 h, read-out: % inhibition ABUTH (20 DAT), oxalate/oxalic acid alone, 2 g a.e./ha, 20 DAT, Table 44A",0%
same,inhibition at 3 g/ha,"ABUTH; 480 h, read-out: % inhibition ABUTH (20 DAT), oxalate/oxalic acid alone, 3 g a.e./ha, 20 DAT, Table 44A",0%
same,inhibition at 4 g/ha,"ABUTH; 480 h, read-out: % inhibition ABUTH (20 DAT), oxalate/oxalic acid alone, 4 g a.e./ha, 20 DAT, Table 44A",0%
same,inhibition at 5 g/ha,"ABUTH; 480 h, read-out: % inhibition ABUTH (20 DAT), oxalate/oxalic acid alone, 5 g a.e./ha, 20 DAT, Table 44A",0%
same,inhibitory effect on the EPSPS enzyme per se,EPSPS enzyme,do not have any inhibitory effect on the enzyme per se
same,herbicidal property by itself,plants,does not have any herbicidal property
COc1cc(OC)nc(NC(=O)NS(=O)(=O)c2ncccc2C(=O)N(C)C)n1 [nicosulfuron],efficacy ABUTH,"ABUTH; 1 g a.e./ha, no OTH1",0.8
same,efficacy ABUTH,ABUTH; [1],6
same,efficacy ABUTH,"ABUTH; 3 g a.e./ha, no OTH1",12
same,efficacy ABUTH,ABUTH; [2],8
same,efficacy ABUTH,"ABUTH; 5 g a.e./ha, no OTH1",14
same,efficacy ABUTH,ABUTH; [3],10
same,efficacy ABUTH,"ABUTH; 10 g a.e./ha, no OTH1",28
same,efficacy ABUTH,ABUTH; [4],58
same,efficacy ECHCF,"ECHCF; 1 g a.e./ha, no OTH1",0.8
same,efficacy ECHCF,ECHCF; [1],4
same,efficacy ECHCF,"ECHCF; 3 g a.e./ha, no OTH1",13
same,efficacy ECHCF,ECHCF; [2],10
same,efficacy ECHCF,"ECHCF; 5 g a.e./ha, no OTH1",40
same,efficacy ECHCF,ECHCF; [3],37
same,efficacy ECHCF,"ECHCF; 10 g a.e./ha, no OTH1",51
same,efficacy ECHCF,ECHCF; [4],42
same,efficacy TRZVX,"TRZVX; 1 g a.e./ha, no OTH1",5
same,efficacy TRZVX,TRZVX; [1],3
same,efficacy TRZVX,"TRZVX; 3 g a.e./ha, no OTH1",15
same,efficacy TRZVX,TRZVX; [2],25
same,efficacy TRZVX,"TRZVX; 5 g a.e./ha, no OTH1",50
same,efficacy TRZVX,TRZVX; [3],47
same,efficacy TRZVX,"TRZVX; 10 g a.e./ha, no OTH1",65
same,efficacy TRZVX,TRZVX; [4],67
c1cc[n+]2c(c1)-c1cccc[n+]1CC2 [diquat],efficacy ABUTH,"ABUTH; 30 g a.e./ha, no OTH1",5
same,efficacy ABUTH,ABUTH; [5],10
same,efficacy ABUTH,"ABUTH; 70 g a.e./ha, no OTH1",15
same,efficacy ABUTH,ABUTH; [6],30
same,efficacy ABUTH,"ABUTH; 100 g a.e./ha, no OTH1",20
same,efficacy ABUTH,ABUTH; [7],41
same,efficacy ABUTH,"ABUTH; 200 g a.e./ha, no OTH1",32
same,efficacy ABUTH,ABUTH; [8],57
same,efficacy ECHCF,"ECHCF; 30 g a.e./ha, no OTH1",19
same,efficacy ECHCF,ECHCF; [5],11
same,efficacy ECHCF,"ECHCF; 70 g a.e./ha, no OTH1",33
same,efficacy ECHCF,ECHCF; [6],24
same,efficacy ECHCF,"ECHCF; 100 g a.e./ha, no OTH1",43
same,efficacy ECHCF,ECHCF; [7],33
same,efficacy ECHCF,"ECHCF; 200 g a.e./ha, no OTH1",46
same,efficacy ECHCF,ECHCF; [8],50
same,efficacy TRZVX,"TRZVX; 30 g a.e./ha, no OTH1",3
same,efficacy TRZVX,TRZVX; [5],14
same,efficacy TRZVX,"TRZVX; 70 g a.e./ha, no OTH1",7
same,efficacy TRZVX,TRZVX; [6],16
same,efficacy TRZVX,"TRZVX; 100 g a.e./ha, no OTH1",27
same,efficacy TRZVX,TRZVX; [7],19
same,efficacy TRZVX,"TRZVX; 200 g a.e./ha, no OTH1",46
same,efficacy TRZVX,TRZVX; [8],47
